Data on ten compounds can be found in US6416979B1, “5-substituted picolinic acid compounds production by Marasmiellus sp” (Pfizer Inc., priority 1997, dated 2002).

The subject of one test is TNF production. Put plainly: TNF Bioassay (LPS-stimulated human whole blood, TNF titer with L929 cells). In kind it is cell-based. The conditions noted are these: heparinised human whole blood diluted four-fold, 10 μg/ml LPS, 37° C., 4 h; standard in vitro protocol. How it is done: (§1) Heparinised human whole blood diluted four-fold with RPMI medium was incubated with 10 μg/ml of Lipopolysaccharide (LPS) in the presence of various concentrations of samples at 37° C. in a humidified atmosphere containing 5% CO2 for 4 h. The TNF titer in the supernatants was determined with L929 cells which were destroyed by TNF quantitatively. L929 cells (2.5×10^4 cells) in 90 μl of E-MEM medium containing 1% fetal calf serum and 0.5 μg/ml of actinomycin D were placed in wells of 96-well microplates (flat-bottom). Ten μl of the supernatants was added to each well and incubated at 37° C. in a humidified atmosphere containing 5% CO2. After 18 h, the plates were rinsed with 0.9% sterile saline and stained for 10 min with 0.4% crystal violet in MeOH. The plates were washed with distilled water and were dried by air. Fifty μl of methanol was added to each well to elute the crystal violet, and the plates were read on a microplate reader (model 3550, BIO-RAD) at 595 nm. TNF production inhibitory activity is calculated by the formula: [formula]

A further test concerns IL-1 production. Nature of the test: IL-1 Bioassay (supernatants of LPS-stimulated human whole blood, specific ELISA). Format: cell-based. The conditions noted are these: heparinised human whole blood diluted four-fold, 10 μg/ml LPS, 37° C., 4 h, standard in vitro protocol. As for the experimental part: as §1
The supernatants prepared by the same method as TNF bioassay were analyzed IL-1 titer by commercially available specific ELISA system. The plates were read on a microplate reader (model 3550, BIO-RAD) at 490 nm. IL-1 production inhibitory activity is calculated by the formula: [formula]
A general note: In an ELISA, binding on a coated surface is turned into a signal by an enzyme label.

Turning to `CC(O)C(O)c1ccc(-c2nnnn2C)nc1` (centres unmarked) [5-(1,2-di-hydroxypropyl)-2-(1-methyl-1H-1,2,3,4-tetrazol-5-yl)pyridine], in the test on TNF production, the “TNF biosynthesis inhibitory activities” value is “found to have the IL-1 and TNF biosynthesis inhibitory activities”. Besides, in the test with IL-1 production, the “IL-1 biosynthesis inhibitory activities” value is “found to have the IL-1 and TNF biosynthesis inhibitory activities”.
Turning to `CC(O)C(O)c1ccc(-c2nnn(C)n2)nc1` (centres unmarked) [5-(1,2-di-hydroxypropyl)-2-(2-methyl-2H-1,2,3,4-tetrazol-5-yl)pyridine], the “TNF biosynthesis inhibitory activities” value with TNF production is “found to have the IL-1 and TNF biosynthesis inhibitory activities”. Further, in the test on IL-1 production, the “IL-1 biosynthesis inhibitory activities” value is “found to have the IL-1 and TNF biosynthesis inhibitory activities”.
`CC(O)C(O)c1ccc(C#N)nc1` (centres unmarked) [5-(1,2-dihydroxypropyl)-2-pyridinecarbonitrile]: in the test on TNF production, the “TNF biosynthesis inhibitory activities” value was “found to have the IL-1 and TNF biosynthesis inhibitory activities”. Besides, in the test with IL-1 production, the “IL-1 biosynthesis inhibitory activities” value was “found to have the IL-1 and TNF biosynthesis inhibitory activities”.
For the compound `CC(O)C(O)c1ccc(C(N)=O)nc1` (centres unmarked) [5-(1,2-dihydroxypropyl)-2-pyridinecarboxamide], in the test with TNF production, the “TNF biosynthesis inhibitory activities” value is “found to have the IL-1 and TNF biosynthesis inhibitory activities”. The “IL-1 biosynthesis inhibitory activities” value in the test with IL-1 production was “found to have the IL-1 and TNF biosynthesis inhibitory activities”.
In the case of `CC(O)C(O)c1ccc(C(=O)O)nc1` (centres unmarked) [5-(1,2-dihydroxypropyl)-2-pyridinecarboxylic acid], the “TNF biosynthesis inhibitory activities” value in the test with TNF production is “found to have the IL-1 and TNF biosynthesis inhibitory activities”. In the test on IL-1 production, the “IL-1 biosynthesis inhibitory activities” value is “found to have the IL-1 and TNF biosynthesis inhibitory activities”.
In the case of `CC(O)C(O)c1ccc(C(=O)N(C)C)nc1` (centres unmarked) [5-(1,2-dihydroxypropyl)-N,N-di-methyl-2-pyridinecarboxamide], in the test with TNF production, the “TNF biosynthesis inhibitory activities” value is “found to have the IL-1 and TNF biosynthesis inhibitory activities”. The “IL-1 biosynthesis inhibitory activities” value in the test with IL-1 production is “found to have the IL-1 and TNF biosynthesis inhibitory activities”.
For `COC(=O)c1ccc(C(OC(=O)c2ccc(Br)cc2)C(C)OC(=O)c2ccc(Br)cc2)cn1` (centres unmarked) [methyl 5-(1,2-di-p-bromobenzoyloxypropyl)-2-pyridinecarboxylate], the “TNF biosynthesis inhibitory activities” value in the test with TNF production is “found to have the IL-1 and TNF biosynthesis inhibitory activities”. Further, the “IL-1 biosynthesis inhibitory activities” value in the test on IL-1 production is “found to have the IL-1 and TNF biosynthesis inhibitory activities”.
Regarding `COC(=O)c1ccc(C(OC(C)=O)C(C)OC(C)=O)cn1` (centres unmarked) [methyl 5-(1,2-diacetoxypropyl)-2-pyridinecarboxylate], in the test on TNF production, the “TNF biosynthesis inhibitory activities” value was “found to have the IL-1 and TNF biosynthesis inhibitory activities”. Moreover, the “IL-1 biosynthesis inhibitory activities” value with IL-1 production was “found to have the IL-1 and TNF biosynthesis inhibitory activities”.
As to `COC(=O)c1ccc(C(O)C(C)O)cn1` (centres unmarked) [methyl 5-(1,2-dihydroxypropyl)-2-pyridinecarboxylate], the “TNF biosynthesis inhibitory activities” value in the test with TNF production is “found to have the IL-1 and TNF biosynthesis inhibitory activities”. The “IL-1 biosynthesis inhibitory activities” value in the test with IL-1 production is “found to have the IL-1 and TNF biosynthesis inhibitory activities”.
On to `COC(=O)c1ccc(C(OC(C)=O)C(C)O)cn1` (centres unmarked) [methyl 5-(1-acetoxy-2-hydroxypropyl)-2-pyridinecarboxylate], for which the “TNF biosynthesis inhibitory activities” value in the test on TNF production was “found to have the IL-1 and TNF biosynthesis inhibitory activities”. Besides, the “IL-1 biosynthesis inhibitory activities” value in the test with IL-1 production is “found to have the IL-1 and TNF biosynthesis inhibitory activities”.
